Values belong to the compound of their own block, whether it stands above or below them. Calls of active or inactive are those of the source. The rule behind the calls is not given here.
Key:
HCT-116 [1] = experiment: Cytotoxicity against human HCT116 cells after 72 hrs by MTT assay; assay type: functional, cell-based; settings: HCT-116, 72 h
DNA = experiment: Induction of DNA damage in plasmid DNA in E. coli S30 cell-free system assessed as inhibition of EGFP translation at 50 uM after 1 hr by fluorescence assay
HCT-116 [2] = experiment: Cell cycle arrest in human HCT116 cells assessed as accumulation at G2/M phase at 1 uM after 24 hrs by propidium iodide staining-based FACS analysis (reference value: 29 +/- 8 %); assay type: functional
Calf thymus DNA [3] = experiment: Binding affinity to calf thymus DNA assessed as hypochromic shift at 20 uM by UV/visible spectrophotometry; assay type: nucleic-acid assay; settings: Bos taurus
HCT-116 [4] = experiment: Cell cycle arrest in human HCT116 cells assessed as accumulation at subG1 phase at 1 uM after 24 hrs by propidium iodide staining-based FACS analysis (reference value: 2 +/- 0.1 %); assay type: functional
HCT-116 [5] = experiment: Cell cycle arrest in human HCT116 cells assessed as accumulation at G2/M phase at 0.1 uM after 48 hrs by propidium iodide staining-based FACS analysis (reference value: 28 +/- 3 %); assay type: functional
[6] = Drug uptake in human H460 cell nucleus at 10 uM after 2 hrs by fluorescence microscopy; assay type: ADME, cell-based; settings: h460, 2 h
[7] = Binding affinity to DNA (unknown origin) at 1 to 10 uM after 15 mins by DNA footprinting assay
Homo sapiens = organism: Homo sapiens; experiment: Inhibition of human DNA topoisomerase 2 assessed as inhibition of DNA cleavage
Calf thymus DNA [8] = experiment: Binding affinity to calf thymus DNA assessed as change in melting temperature at 0.5 drug/DNA ratio by spectrophotometry; assay type: nucleic-acid assay; settings: Bos taurus
[9] = Drug uptake in human H460 cell lysosome at 10 uM after 2 hrs by confocal laser scanning microscopy; assay type: ADME, cell-based; settings: h460, 2 h
HCT-116 [10] = experiment: Cell cycle arrest in human HCT116 cells assessed as accumulation at S phase at 1 uM after 48 hrs by propidium iodide staining-based FACS analysis (reference value: 12+/- 5 %); assay type: functional
[11] = Drug uptake in human H460 cell nucleus at 10 uM after 2 hrs by confocal laser scanning microscopy; assay type: ADME, cell-based; settings: h460, 2 h
HCT-116 [12] = experiment: Cell cycle arrest in human HCT116 cells assessed as accumulation at subG1 phase at 0.1 uM after 48 hrs by propidium iodide staining-based FACS analysis (reference value: 5 +/- 2 %); assay type: functional
HCT-116 [13] = experiment: Cell cycle arrest in human HCT116 cells assessed as accumulation at G1 phase at 0.1 uM after 24 hrs by propidium iodide staining-based FACS analysis (reference value: 23 +/- 2 %); assay type: functional
HCT-116 [14] = experiment: Cell cycle arrest in human HCT116 cells assessed as accumulation at subG1 phase at 0.1 uM after 24 hrs by propidium iodide staining-based FACS analysis (reference value: 2 +/- 0.1 %); assay type: functional
Escherichia coli [15] = experiment: Binding affinity to Escherichia coli pUC19 plasmid assessed as nicked DNA at 0.1 to 5 uM by ethidium bromide staining-based agarose gel electrophoresis
HCT-116 [16] = experiment: Cell cycle arrest in human HCT116 cells assessed as accumulation at subG1 phase after 24 hrs by propidium iodide staining-based FACS analysis; assay type: functional
H460 = experiment: Binding affinity to chromosomal DNA in human H460 cells at 10 uM after 2 hrs by confocal laser scanning microscopy; assay type: cell-based
HCT-116 [17] = experiment: Cell cycle arrest in human HCT116 cells assessed as accumulation at G1 phase at 1 uM after 24 hrs by propidium iodide staining-based FACS analysis (reference value: 23 +/- 2 %); assay type: functional
MCF7 = experiment: Cytotoxicity against human MCF7 cells after 72 hrs by MTT assay; assay type: functional, cell-based; settings: MCF7, 72 h
HCT-116 [18] = experiment: Cell cycle arrest in human HCT116 cells assessed as accumulation at G2/M phase at 0.1 uM after 24 hrs by propidium iodide staining-based FACS analysis (reference value: 29 +/- 8 %); assay type: functional
HCT-116 [19] = experiment: Cell cycle arrest in human HCT116 cells assessed as accumulation at G1 phase at 0.1 uM after 48 hrs by propidium iodide staining-based FACS analysis (reference value: 60 +/- 2 %); assay type: functional
Calf thymus DNA [20] = experiment: Binding affinity to calf thymus DNA assessed as bathochromic shift at 20 uM by UV/visible spectrophotometry; assay type: nucleic-acid assay; settings: Bos taurus
[21] = Drug uptake in human H460 cell endosome at 10 uM after 2 hrs by confocal laser scanning microscopy; assay type: ADME, cell-based; settings: h460, 2 h
HCT-116 [22] = experiment: Cell cycle arrest in human HCT116 cells assessed as accumulation at G1 phase at 1 uM after 48 hrs by propidium iodide staining-based FACS analysis (reference value: 60 +/- 2 %); assay type: functional
HCT-116 [23] = experiment: Cell cycle arrest in human HCT116 cells assessed as accumulation at S phase at 0.1 uM after 24 hrs by propidium iodide staining-based FACS analysis (reference value: 48 +/- 6 %); assay type: functional
HCT-116 [24] = experiment: Cell cycle arrest in human HCT116 cells assessed as accumulation at subG1 phase at 1 uM after 48 hrs by propidium iodide staining-based FACS analysis (reference value: 5 +/- 2 %); assay type: functional
HCT-116 [25] = experiment: Cell cycle arrest in human HCT116 cells assessed as accumulation at subG1 phase at 5 uM after 24 hrs by propidium iodide staining-based FACS analysis; assay type: functional
HCT-116 [26] = experiment: Cell cycle arrest in human HCT116 cells assessed as accumulation at G2/M phase at 1 uM after 48 hrs by propidium iodide staining-based FACS analysis (reference value: 28 +/- 3 %); assay type: functional
HCT-116 [27] = experiment: Cell cycle arrest in human HCT116 cells assessed as accumulation at S phase at 0.1 uM after 48 hrs by propidium iodide staining-based FACS analysis (reference value: 12+/- 5 %); assay type: functional
[28] = Drug uptake in human H460 cell cytoplasm at 10 uM after 2 hrs by fluorescence microscopy; assay type: ADME, cell-based; settings: h460, 2 h
HCT-116 [29] = experiment: Cell cycle arrest in human HCT116 cells assessed as accumulation at S phase at 1 uM after 24 hrs by propidium iodide staining-based FACS analysis (reference value: 48 +/- 6 %); assay type: functional
[30] = target: T1, DNA topoisomerase 1 (Homo sapiens) (UniProt P11387); experiment: Inhibition of human DNA topoisomerase 1 assessed as inhibition of DNA cleavage
T1 sequence (whole entry): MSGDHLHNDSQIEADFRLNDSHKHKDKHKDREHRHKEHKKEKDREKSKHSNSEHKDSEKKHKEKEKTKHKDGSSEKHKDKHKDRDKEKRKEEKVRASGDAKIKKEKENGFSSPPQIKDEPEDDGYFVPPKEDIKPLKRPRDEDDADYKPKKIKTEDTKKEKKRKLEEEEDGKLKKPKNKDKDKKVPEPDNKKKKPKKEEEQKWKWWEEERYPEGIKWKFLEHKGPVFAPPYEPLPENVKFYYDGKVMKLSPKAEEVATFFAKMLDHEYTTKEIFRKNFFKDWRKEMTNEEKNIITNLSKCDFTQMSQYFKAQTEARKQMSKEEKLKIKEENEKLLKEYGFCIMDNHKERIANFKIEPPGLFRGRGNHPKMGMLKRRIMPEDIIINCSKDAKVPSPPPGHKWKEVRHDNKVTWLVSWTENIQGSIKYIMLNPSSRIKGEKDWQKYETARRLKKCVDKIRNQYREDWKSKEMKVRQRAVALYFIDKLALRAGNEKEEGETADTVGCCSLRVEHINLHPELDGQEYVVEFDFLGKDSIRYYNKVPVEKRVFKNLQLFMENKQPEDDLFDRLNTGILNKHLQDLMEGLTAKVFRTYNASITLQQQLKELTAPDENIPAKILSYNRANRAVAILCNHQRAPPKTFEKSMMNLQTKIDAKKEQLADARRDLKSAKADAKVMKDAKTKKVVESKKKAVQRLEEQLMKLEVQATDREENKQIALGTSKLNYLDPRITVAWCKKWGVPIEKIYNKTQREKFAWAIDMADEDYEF

[31] = Cytotoxicity against human H460 cells after 72 hrs by MTT assay; assay type: functional, cell-based; settings: NCI-H460, 72 h
Calf thymus DNA [32] = experiment: Binding affinity to calf thymus DNA assessed as DNA intercalation at 1 to 50 uM by circular dichroism analysis; assay type: nucleic-acid assay; settings: Bos taurus
Nucleic Acid = experiment: DNA intercalating activity at Escherichia coli pUC19 plasmid assessed as effect on global structure of DNA helix at 5 to 50 uM incubated for 45 mins prior to topoisomerase1 addition by agarose gel electrophoresis; assay type: nucleic-acid assay
Escherichia coli [33] = experiment: Binding affinity to Escherichia coli pUC19 plasmid assessed as nicked DNA at 5 to 50 uM by ethidium bromide staining-based agarose gel electrophoresis
Escherichia coli [34] = experiment: Induction of topoisomerase1-mediated Escherichia coli pUC19 plasmid relaxation at 20 to 50 uM incubated for 45 mins prior to topoisomerase1 addition by agarose gel electrophoresis
Escherichia coli [35] = experiment: Binding affinity to Escherichia coli pUC19 plasmid assessed as induction of topoisomerase1-mediated DNA relaxation at 1 uM incubated for 45 mins prior to topoisomerase1 addition by agarose gel electrophoresis

- Activity (Calf thymus DNA [3]): Active
- Drug uptake [6]: Active
- Activity [7]: Active
- Activity (Homo sapiens): inactive
- ΔTm (Calf thymus DNA [8]): 19.2 °C
- Drug uptake [9]: Active
- Drug uptake [11]: Active
- Activity (Escherichia coli [15]): Active
- Activity (Calf thymus DNA [20]): Active
- Drug uptake [21]: Active
- Drug uptake [28]: Active
- Activity [30]: inactive
- Activity (Calf thymus DNA [32]): Active
Compound: CN(C)CCCNc1ccc2cc(C#N)c3nc4ccccc4n3c2c1
- IC50 (HCT-116 [1]): 230 nM
- inhibition at 50 µM (DNA): 72%
- Activity (HCT-116 [2]): 65%
- Activity (HCT-116 [4]): 5%
- Activity (HCT-116 [5]): 17%
- Activity (HCT-116 [10]): 1%
- Activity (HCT-116 [12]): 4%
- Activity (HCT-116 [13]): 13%
- Activity (HCT-116 [14]): 6%
- Activity (HCT-116 [16]): Dose-dependent effect
- Activity (H460): Active
- Activity (HCT-116 [17]): 22%
- IC50 (MCF7): 400 nM
- Activity (HCT-116 [18]): 40%
- Activity (HCT-116 [19]): 60%
- Activity (HCT-116 [22]): 41%
- Activity (HCT-116 [23]): 47%
- Activity (HCT-116 [24]): 8%
- Activity (HCT-116 [25]): 40%
- Activity (HCT-116 [26]): 58%
- Activity (HCT-116 [27]): 23%
- Activity (HCT-116 [29]): 13%
- IC50 [31]: 300 nM

Compound: COc1cccc2c1C(=O)c1c(O)c3c(c(O)c1C2=O)C[C@@](O)(C(=O)CO)C[C@@H]3O[C@H]1C[C@H](N)[C@H](O)[C@H](C)O1 [DOXORUBICIN]
- inhibition at 50 µM (DNA): 79%

Compound: CNc1ccc2cc(C#N)c3nc4ccccc4n3c2c1
- IC50 (HCT-116 [1]): > 10000 nM
- IC50 (MCF7): 200 nM
- IC50 [31]: > 10000 nM

Compound: CCN(CC)CCNc1ccc2cc(C#N)c3nc4ccccc4n3c2c1
- IC50 (HCT-116 [1]): 200 nM
- IC50 (MCF7): 300 nM
- IC50 [31]: 200 nM

- Activity (Homo sapiens): inactive
- ΔTm (Calf thymus DNA [8]): 0 °C
- Activity (Nucleic Acid): inactive
- Activity (Escherichia coli [33]): Active
- Activity [30]: inactive
- Activity (Calf thymus DNA [32]): inactive
Compound: CCCCCN(CCCCC)c1ccc2cc(C#N)c3nc4ccccc4n3c2c1
- IC50 (HCT-116 [1]): > 10000 nM
- IC50 (MCF7): 39000 nM
- IC50 [31]: > 10000 nM

- Activity (Calf thymus DNA [3]): Active
- Activity (Escherichia coli [34]): inactive
- Activity (Homo sapiens): inactive
- ΔTm (Calf thymus DNA [8]): 3.8 °C
- Activity (Escherichia coli [33]): Active
- Activity (Escherichia coli [35]): Active
- Drug uptake [28]: Active
- Activity [30]: inactive
- Activity (Calf thymus DNA [32]): inactive
Compound: CC(C)CNc1ccc2cc(C#N)c3nc4ccccc4n3c2c1
- IC50 (HCT-116 [1]): 600 nM
- inhibition at 50 µM (DNA): 17%
- Activity (HCT-116 [2]): 85%
- Activity (HCT-116 [4]): 16%
- Activity (HCT-116 [5]): 17%
- Activity (HCT-116 [10]): 0%
- Activity (HCT-116 [12]): 6%
- Activity (HCT-116 [13]): 14%
- Activity (HCT-116 [14]): 4%
- Activity (HCT-116 [16]): Dose-dependent effect
- Activity (HCT-116 [17]): 7%
- IC50 (MCF7): 400 nM
- Activity (HCT-116 [18]): 42%
- Activity (HCT-116 [19]): 62%
- Activity (HCT-116 [22]): 10%
- Activity (HCT-116 [23]): 44%
- Activity (HCT-116 [24]): 30%
- Activity (HCT-116 [25]): 40%
- Activity (HCT-116 [26]): 90%
- Activity (HCT-116 [27]): 21%
- Activity (HCT-116 [29]): 8%
- IC50 [31]: 300 nM

- Activity (Escherichia coli [34]): inactive
- Activity (Homo sapiens): inactive
- ΔTm (Calf thymus DNA [8]): 0 °C
- Activity (Escherichia coli [33]): Active
- Activity [30]: inactive
- Activity (Calf thymus DNA [32]): Active
Compound: N#Cc1cc2ccc(N3CCOCC3)cc2n2c1nc1ccccc12
- IC50 (HCT-116 [1]): 300 nM
- IC50 (MCF7): 200 nM
- IC50 [31]: 300 nM
